{"source": "patent US9290740B2", "about": "“Use of basic fibroblast growth factor in the de-differentiation of animal connective tissue cells” (Worcester Polytechnic Institute, priority 2008, dated 2016)", "tested_on": "Nanog in CRL-2352 (ATCC) cells", "assay": "Effect of valproic acid on FGF2 de-differentiation (Nanog immunocytochemistry on glass coverslips)", "type": "cell-based, human", "conditions": "1.0 μM valproic acid with 4 ng/ml FGF2, glass coverslips, 5% O2, 6 days", "experimental": "The effect of valproic acid on FGF2 de-differentiation was also studied. CRL-2352 (ATCC) cells (2000 cells per well in 24-well plates containing sterile 12 mm glass coverslips) were cultured in medium consisting of DMEM:Ham's F12 (60:40, MediaTech) with 10% Fetalclone III (Hyclone, Logan, Utah) and 4 ng/ml FGF2, with and without 1.0 μM valproic acid, in parallel cultures. Cultures were carried out in a 37° C. incubator in a humidified environment of 5% CO2, 5% O2, and 90% N2 for 6 days with medium changed at day 3. Cells were washed with DPBS and fixed with −20° C. methanol for 10 min, washed with PBS and processed for immunocytochemistry."}
{"smiles": "CCCC(CCC)C(=O)O", "note": "[valproic acid]", "values": [{"measurement": "nuclear staining for Nanog", "result": "increased nuclear staining for Nanog"}]}
